Experimental data as given in publication PMC9804470, “A Formylglycine‐Peptide for the Site‐Directed Identification of Phosphotyrosine‐Mimetic Fragments” (Chemistry (Weinheim an Der Bergstrasse, Germany), 2022).
Where two headings read alike, the source gives them in different places.

Assays:
[1] = molecular target: T1, catalytic domain of human SHP2 (Homo sapiens, UniProt Q06124); assay: Enzyme activity assay of SHP2 catalytic domain with fluorogenic substrate DiFMUP; format: biochemical
T1 construct: catalytic domain of human SHP2 (amino acids 225–541); His10 (N); made in house; host or cells: E. coli B21 (DE3)
T1 sequence (Q06124 225-541): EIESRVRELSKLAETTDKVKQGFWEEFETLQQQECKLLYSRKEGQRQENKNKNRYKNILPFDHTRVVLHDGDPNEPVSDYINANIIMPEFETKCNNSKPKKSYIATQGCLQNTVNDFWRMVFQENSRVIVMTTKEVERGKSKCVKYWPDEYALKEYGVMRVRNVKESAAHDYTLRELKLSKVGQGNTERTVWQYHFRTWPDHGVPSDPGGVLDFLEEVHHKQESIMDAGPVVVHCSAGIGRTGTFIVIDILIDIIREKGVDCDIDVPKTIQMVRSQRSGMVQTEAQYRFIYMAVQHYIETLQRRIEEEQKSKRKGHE
Protocol: Enzyme activity assays of SHP2 and PTP1B: The catalytic activity of SHP2 catalytic domain and PTP1B were monitored using the fluorogenic substrate DiFMUP (6,8‐difluoro‐4‐methylumbelliferyl phosphate). Phosphatase reactions were performed at room temperature in 384‐well black plate, clear flat bottom, low flange, non‐binding surface (Corning, Cat# 3766) using a final volume of 20 μL and the following assay buffer conditions: 50 mM MOPS, pH=6.5, 200 mM NaCl, 50 μM TCEP, 0.03 % Tween‐20 (freshly added prior to each measurement). Test compounds were dissolved in DMSO or buffer at stock concentrations of 50, 20 or 10 mM and serially diluted. Enzyme (5 nM PTP1B or 2.5 nM SHP2 catalytic domain) and different concentrations of the tested compounds were incubated in buffer for 30–60 min at room temperature. […] Enzymatic reactions were started by adding DiFMUP (Invitrogen, cat# D6567) concentrations matching the experimentally determined KM values of the enzymes of 67 μM (PTP1B) or 72 μM (SHP2). Samples were excited at a wavelength of 360 nm and emitted fluorescence was recorded at 460 for 10 min using a microplate reader (infinite M1000 Pro, Tecan). Initial slope of fluorescence was determined in triplicate and IC50 values were calculated with GraphPad Prism 5. Determined IC50 values were converted into the corresponding KI values applying the Cheng Prusoff equation KI =IC50 /(1+[S]/KM ).

[2] = system: HGF‐induced tyrosine phosphorylation of ERK 1/2 in HeLa cells; assay: Western blot of p-ERK in HGF-stimulated HeLa cells; format: cell-based; conditions: 1 h treatment; for Concentration giving (complete) dephosphorylation of Erk / inhibition of Erk phosphorylation: HGF 20 ng/well, Western blot p-ERK
Protocol: Cellular experiments: HeLa cells were cultivated in DMEM buffer with 10 % FCS in 75 cm^2 cell culture flasks at 37 °C, 5 % CO2. At confluency of about 75 %, cells were seeded in a density of 250,000 cells/mL in 6‐well plates and incubated for 24 h. Subsequently, medium was removed and replaced by DMEM buffer with 0.1 % BSA (1 mL per well) and incubated for another 16 h. Hepatocyte growth factor (HGF, 20 ng/well) and test compounds in different final concentrations (1 μL, in DMSO) were added. Control wells received the same amount of DMSO (final concentration 0.1 %) or no addition. Plates were incubated for 1 h, then washed with cold PBS and shaken with lysis buffer (mPer reagent ThermoScientific # 78501 with 1 mM NaF, 2 mM Na3VO4, 25× protease inhibitor) for 5 min. Cell lysates were transferred to Eppendorf cups and centrifuged at 4 °C with 10,000 g for 10 min. […] The blot was incubated with anti‐phospo‐ERK as primary antibody (Cell Signaling # 9106, dilution 1 : 2000 in TBS‐Tween/ 2 % BSA) overnight at 4 °C, washed 3×5 min with TBS‐Tween, and incubated with anti‐mouse IgG‐hrp as secondary antibody (Santa Cruz # sc2031, 1 : 6000 in TBS‐ Tween/ 2 % BSA, RT, 1.5 h). The blot was again washed 3×5 min with TBS‐Tween and imaged with the ECL system (ThermoScientific # 34080) at Syngene PXi Imager. From the same lysis sample, under the same conditions, ERK 1/2 and β‐tubulin were blotted. For β‐tubulin, the antibody incubation time was adjusted to 2 h at RT.

[3] = molecular target: T2, PTP1B (Homo sapiens, UniProt P18031); assay: Dynamic ligation screening of nucleophilic fragments with formylglycine peptide 3, PTP1B; format: biochemical; conditions: 3 100 μM pre-incubated 5 min, fragment 200 μM, 30 min RT before DiFMUP, triplicates
T2 construct: catalytic domain of human PTP1B (amino acids 1–321); His7 (N, cleaved yes); made in house; host or cells: E. coli Rosetta (DE3)
T2 sequence (P18031 1-321): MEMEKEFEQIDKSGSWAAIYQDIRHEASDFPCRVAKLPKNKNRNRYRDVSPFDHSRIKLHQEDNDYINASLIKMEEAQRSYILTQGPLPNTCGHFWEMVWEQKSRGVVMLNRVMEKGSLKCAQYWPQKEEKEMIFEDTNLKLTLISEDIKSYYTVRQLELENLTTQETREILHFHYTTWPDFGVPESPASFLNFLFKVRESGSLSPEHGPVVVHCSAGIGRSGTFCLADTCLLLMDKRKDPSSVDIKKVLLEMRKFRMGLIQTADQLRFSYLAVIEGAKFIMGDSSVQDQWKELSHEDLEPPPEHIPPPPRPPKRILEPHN
Protocol: Enzyme activity assays of SHP2 and PTP1B: The catalytic activity of SHP2 catalytic domain and PTP1B were monitored using the fluorogenic substrate DiFMUP (6,8‐difluoro‐4‐methylumbelliferyl phosphate). Phosphatase reactions were performed at room temperature in 384‐well black plate, clear flat bottom, low flange, non‐binding surface (Corning, Cat# 3766) using a final volume of 20 μL and the following assay buffer conditions: 50 mM MOPS, pH=6.5, 200 mM NaCl, 50 μM TCEP, 0.03 % Tween‐20 (freshly added prior to each measurement). Test compounds were dissolved in DMSO or buffer at stock concentrations of 50, 20 or 10 mM and serially diluted. Enzyme (5 nM PTP1B or 2.5 nM SHP2 catalytic domain) and different concentrations of the tested compounds were incubated in buffer for 30–60 min at room temperature. Measurements were performed with a final concentration of 2.5 % DMSO unless stated otherwise at 37 °C and were performed in triplicate. Enzymatic reactions were started by adding DiFMUP (Invitrogen, cat# D6567) concentrations matching the experimentally determined KM values of the enzymes of 67 μM (PTP1B) or 72 μM (SHP2). Samples were excited at a wavelength of 360 nm and emitted fluorescence was recorded at 460 for 10 min using a microplate reader (infinite M1000 Pro, Tecan). Initial slope of fluorescence was determined in triplicate and IC50 values were calculated with GraphPad Prism 5. Determined IC50 values were converted into the corresponding KI values applying the Cheng Prusoff equation KI =IC50 /(1+[S]/KM ).
Dynamic ligation screening of nucleophilic fragments with 3: Under assay conditions described above, PTP1B or SHP2 were pre‐incubated with 3 (100 μM) for 5 min. Subsequently, (200 μM) of the respective fragments were added and the resulting mixtures were incubated for 30 min at RT, prior to DiFMUP addition.

Compound	Enhancement of inhibition of PTP1B by fragment in combination with peptide 3 (fragment ligation assay) [3]	further results
O=C1/C(=N\Nc2ccc(NS(=O)(=O)C(F)(F)F)cc2)C(c2ccc([N+](=O)[O-])cc2)=NN1c1ccc([N+](=O)[O-])cc1 [Compound 22]		Ki ([1]; DiFMUP 72 μM (= KM), enzyme 1.5 nM, triplicate, from IC50 by Cheng-Prusoff (IC50/2), read-out: KI SHP2 (Table 2, footnote a)): 5.9 µM; Effect on HGF‐induced tyrosine phosphorylation of ERK 1/2 ([2]; Western blot, DMSO control): decreased; Concentration giving (complete) dephosphorylation of Erk / inhibition of Erk phosphorylation [2]: 25 µM
O=C(O)COc1ccc(N/N=C2\C(=O)N(c3ccc([N+](=O)[O-])cc3)N=C2c2ccc([N+](=O)[O-])cc2)cc1 [Compound 23, (Z)‐2‐(4‐(2‐(1,3‐Bis‐(4‐nitrophenyl)‐5‐oxo‐1,5‐dihydro‐4H‐pyrazol‐4‐ylidene)‐hydrazinyl)‐phenoxy)‐acetic acid]		Ki ([1]; catalytic domain of SHP2, DiFMUP, from IC50 by Cheng-Prusoff, GS-493 sentence carries ref 26, read-out: KI SHP2): 0.275 µM; Concentration giving (complete) dephosphorylation of Erk / inhibition of Erk phosphorylation [2]: > 100 µM
Nc1ccc(C(=O)O)cc1 [Compound F5, 4‐amino benzoic acid]	inactive	
Nc1ccc(C(F)(F)F)cc1 [Compound F8, 4‐amino‐phenyl‐trifluoromethane]	inactive	
O=P(O)(O)C(F)(F)C1CCNCC1 [Compound F9, 4‐piperidinyl‐difluoromethyl phosphonate]	inactive	
Nc1ccccc1 [aniline, reference compound]	entirely inactive	
N‐(4‐aminophenyl)‐sulfonic acid [Compound F6]	inactive	
